Several values for one entry are separate records, joined by “and”; a condition that tells them apart may be missing. Equal values may be shown once. Read-outs that look alike come from different tables or passages of the source.
Experiments:
[1] = Catalytic Activity Test (Dielectric Polarization Analyzer SubCASE HT)
Method: Comparative catalytic activity of selected tin-containing catalysts was determined with the use of Dielectric Polarization Analyzer SubCASE HT (Format Messtechnik GmbH) that converts the dielectric conductivity signal to Pot Life and Cure Time (among others) of curing polymer systems. Pot Life was determined by the instrument as time between the mixing the reactants and beginning of the polymerization process at 10% reduction in dielectrical properties from the initial point. Cure Time is calculated as the time between the maximum cure rate point and the point at which the maximum rate is slowed down by 25%. The polyurethane test formulation used for screening catalytic activity of the selected tin-containing catalysts with the use of SubCASE HT is shown in Table 1.
The selected catalysts were tested at loadings of the same tin content. The following catalysts were tested for comparative catalytic activity: stannous di-2-ethylhexanoate, stannous dineodecanoate, stannous diricinoleate, dimethyltin dioleate and dimethyltin dineodecanoate. A catalyst was added to the polyol and mixed at 400 rpm until thoroughly dispersed. IPDI was then added to the polyol/catalyst mixture and mixed for 20 seconds at 400 rpm before introducing the mixture into the SubCASE HT instrument and starting the kinetics measurements. The instrument temperature was set to 30° C. Results of the comparative catalytic activity test for Pot Life and Cure Time of the selected tin-containing catalysts are in Table 2.

[2] = cited from earlier work
[3] = for Cream time / % Elongation / Density / Permeability / Resiliency / Tensile: catalyst 0.23 pphp
Method: In addition to the above Examples carried out in the screening polyurethane formulation, actual flexible polyurethane foam specimens were prepared and tested for their performance characteristics.
The flexible polyurethane foam formulation is in Table 4.
Testing results of the prepared foams are in Table 5.

[4] = same amount of tin (0.029 g), 30° C.
[5] = reproductive toxicity / CMR status, current or as in Comments

Compound | Cure Time [1, 4] [s] | Cure Time-Pot Life [1, 4] [s] | Pot Life [1, 4] [s] | Cure Time ([1]; same tin amount) [s] | Pot Life ([1]; same tin amount) | CMR classification ([2]; current) | CMR classification [2, 5] | Cream time [3] [s] | % Elongation ([3]; foam) [%] | Density ([3]; foam) [lbs/ft3] | Permeability ([3]; foam) [scfm] | Resiliency ([3]; foam) [%] | Tensile ([3]; foam) [psi] | CMR Classification (mutagen) ([2]; mutagenicity) | elongation ([3]; foam) [%] | increase of elongation compared to Example Control 1 and Example Control 2 ([3]; foam)
Stannous diricinoleate | 895 | 335 | 560 | 895 | 560 s | non-CMR | Not CMR |  |  |  |  |  |  |  |  | 
Dimethyltin diricinoleate | 928 | 457 | 471 | 928 | 471 s | reprotoxicants of category 2 | Reprotox. of Cat. 2 | 17 | 93 | 1.39 | 4.4 | 35 | 14 |  |  | 
Dibutyltin dilaurate |  |  |  |  |  | reprotoxicants of category 1B | Reprotox. of Cat. 1B |  |  |  |  |  |  | Mutagen of Cat. 2 |  | 
Stannous dineodecanoate | 741 | 337 | 404 | 741 | 404 s and 471 s | non-CMR | Not CMR | 15 | 97 | 1.32 | 0.6 | 28 | 14 |  | 97 | 
Dimethyltin dioleate | 1135 | 533 | 602 |  | 602 s | reprotoxicants of category 2 | Reprotox. of Cat. 2 |  |  |  |  |  |  |  |  | 
CC(=O)[O-].CC(=O)[O-].[CH3][Sn+2][CH3] [Dimethyltin diacetate] |  |  |  |  |  | reprotoxicants of category 2 | Reprotox. of Cat. 2 |  |  |  |  |  |  |  |  | 
Stannous di(2-ethylhexanoate) | 420 | 109 | 311 |  | 311 s |  |  | 17 |  |  |  |  |  |  |  | 
Dioctyltin dilaurate |  |  |  |  |  | reprotoxicants of category 1B | Reprotox. of Cat. 1B |  |  |  |  |  |  |  |  | 
Dimethyltin dineodecanoate | 695 | 321 | 374 | 695 | 374 s | reprotoxicants of category 2 | Reprotox. of Cat. 2 | 18 | 107 | 1.37 | 0.3 | 20 | 15 |  | 107 | about 31%

— US20260226222A1, “PROCESS FOR MANUFACTURING POLYURETHANE FOAM” (Galata Chemicals, LLC, priority 2023, published 2026)
